Measurements as given in patent US12509482B2, “3′-ketoglycoside compound for the slow release of a volatile alcohol” (GLYCOSCIENCE, S.L., priority 2020, dated 2025).
Like-named read-outs stand apart in the source and are kept apart here. Blank lines part the entries; values can stand above or below the molecule they belong to.

What was measured:
Format in all cases: physicochemical
[1] = Example 13: release of 4-nitrophenol from substrate A (4-nitrophenyl-O-β-D-3′-ketoglucopyranoside) vs substrate B (4-nitrophenyl-O-β-D-glucopyranoside), 0.1 M deuterated phosphate buffer or water, 10% D6-DMSO, room temperature; conditions: varying solution pH; room temperature; 0.5 mL of aqueous solution
Method: In this example, 4-nitrophenyl-O-β-D-3′-ketoglucopyranoside and 4-nitrophenyl-O-beta-D-glucopyranoside were used as model compounds to determine the rate of release of an aromatic alcohol (4-nitrophenol) under different conditions.
Rate of release of 4-nitrophenol from (2R,3R,5S,6S)-3,5-dihydroxy-2-(hydroxymethyl)-6-(4-nitrophenoxy)tetrahydro-4H-pyran-4-one (4-nitrophenyl-O-β-D-3′-ketoglucopyranoside) was determined in comparison to (2R,3S,4S,5R,6S)-2-(hydroxymethyl)-6-(4-nitrophenoxy)tetrahydro-2H-pyran-3,4,5-triol (para-nitrophenyl-O-β-D-glucopyranoside) in 0.1 M deuterated phosphate buffer solutions of differing pH containing 10% D6-DMSO or in water containing 10% D6-DMSO at room temperature.
1 M Stock solutions of sodium dihydrogen phosphate and disodium hydrogen phosphate were prepared in deuterated water (D2O). Stock solutions of 25 mg of 4-nitrophenyl-O-β-D-3′-ketoglucopyranoside (substrate A), 25 mg of 4-nitrophenyl-O-β-D-glucopyranoside (substrate B) in 0.5 mL of D6-DMSO were each prepared and a stock solution of 11 mg of 4-nitrophenol in the same volume of D6-DMSO for visual comparison.
Solutions of pH 4.5, 5.8, 7.4 and 9.5 were prepared by dilution of the appropriate individual or mixture of stock phosphate salt solutions to 0.1 M using a calibrated pH meter.
To ten parallel reaction vials was added 0.05 mL of one of the glycoside substrate stock solutions in D6-DMSO, 0.5 mL of the appropriate deuterated buffer solution or 0.5 mL of water were indicated in Table I below. The reaction vials were allowed to stand at room temperature and the colour of the solutions recorded by visual observation relative to the colour of authentic 4-nitrophenol solutions diluted in the same way, as shown in Table I:
After approximately 26 h, reactions 2 to 5 were all analysed by ^1H-NM R using 128 scans on a 400 MHz instrument.

[2] = Example 30: competitive release of alcohol from substrate stock solutions A-D (methyl-O-α-D-3′-ketoglucopyranoside, methyl-O-α-D-glucopyranoside, phenyl-O-β-D-3′-ketoglucopyranoside, phenyl-O-β-D-glucopyranoside, each with 4-nitrophenyl-O-β-D-glucopyranoside), 0.1 M phosphate buffer, 37° C., presence and absence of fresh skin wash; conditions: for alcohol release (in words): 37° C.
Excerpt: In this example, phenyl-O-β-D-3′-ketoglucopyranoside, methyl-O-α-D-3′-ketoglucopyranoside, phenyl-O-β-D-glucopyranoside, methyl-O-α-D-glucopyranoside and 4-nitrophenyl-O-β-D-glucopyranoside were used as model compounds to determine the rate of release of their respective alcohol rests under different conditions.
The competitive rate of release of methanol or phenol and 4-nitrophenol from a 1:1 stoichiometric mixture of (2R,5S,6S)-3,5-dihydroxy-2-(hydroxymethyl)-6-phenoxytetrahydro-4H-pyran-4-one (phenyl-O-β-D-3′-ketoglucopyranoside) or (2R,3R,5S,6S)-3,5-dihydroxy-2-(hydroxymethyl)-6-methoxytetrahydro-4H-pyran-4-one (methyl-O-α-D-3′ketoglucopyranoside) and their respective 0-glucopyranosides against (2R,3S,4S,5R,6S)-2-(hydroxymethyl)-6-(4-nitrophenoxy)tetrahydro-2H-pyran-3,4,5-triol (4-nitrophenyl-O-β-D-glucopyranoside) in 0.1 M deuterated phosphate buffer solutions at pH 5.7 and 7.0 containing 10% D6-DMSO at room temperature in the presence and absence of fresh skin washing solution was determined.
1 M Stock solutions of sodium dihydrogen phosphate and disodium hydrogen phosphate were prepared in deuterated water (D2O).
4-Nitrophenyl-O-β-D-glucopyranoside (50 mg) was dissolved in D6-DMSO (1 mL) and 0.2 mL of the resultant solution added to each of 10 mg of methyl-O-α-D-3′-ketoglucopyranoside, methyl-O-α-D-glucopyranoside, phenyl-O-β-D-3′-ketoglucopyranoside and phenyl-O-β-D-glucopyranoside to give substrate stock solutions A, B, C and D respectively.
In a typical experiment, a stock solution of fresh skin wash suspension was prepared by swabbing a 25 cm^2 area of cheek skin of a human volunteer by robustly rubbing the area with a cotton wool gauze (5×5 cm^2) soaked in D2O (12.5 mL) for 1 minute and then resuspending the gauze in the D2O solution, rapidly shaking and removing the gauze after squeezing out as much liquid as possible with a spatula.
1 M Stock solutions of phosphate buffer, pH 5.7 and 7.0 were prepared by appropriately mixing 1 M stock phosphate salts solutions to the correct pH as determined using a calibrated pH meter.
Half of each buffer stock solution was diluted ten times with D2O and the other with the above skin washing stock solution to give a 0.1 M phosphate buffer in D2O with a final pH of 5.7, 0.1 M phosphate buffer in D2O with a final pH of 7.0, a 0.1 M phosphate buffer in skin wash solution with a final pH of 5.7 and a 0.1 M phosphate buffer in skin wash solution with a final pH of 7.0.
To sixteen parallel reaction vials, was added 0.45 mL of low or high pH 0.1M phosphate buffer in D2O or 0.45 mL of low or high pH 0.1M phosphate buffer in skin wash solution followed by 0.05 mL of one of the glycoside substrate solutions in D6-DMSO and the mixtures incubated by shaking at 37° C. After times indicated in the table below, the mixtures where analysed by ^1H-NMR with 128 scans using a 400 MHz instrument and the colour observed visually, with the results shown in Table XVII: […]

[3] = Example 21: release of methanol from substrate A (methyl-O-α-D-3′-ketoglucopyranoside) vs substrate B (methyl-O-α-D-glucopyranoside), 0.1 M phosphate buffer or water, room temperature then 37° C.
Method: In this example, methyl-O-α-D-3′-ketoglucopyranoside and methyl-O-α-D-glucopyranoside were used as model compounds to determine the rate of release of an aliphatic alcohol (methanol) under different conditions.
1 M Stock solutions of sodium dihydrogen phosphate and disodium hydrogen phosphate were prepared in deuterated water (D2O). Stock solutions of 15 mg of methyl-O-α-D-3′-ketoglucopyranoside (substrate A) and methyl-O-α-D-glucopyranoside (substrate B) were each prepared by dissolving in 0.3 mL of D6-DMSO.
Solutions of pH 4.5, 5.8 and 7.4 were prepared by dilution of the appropriate individual or mixture of stock phosphate salt solutions to 0.1 M using a calibrated pH meter.
To eight parallel reaction vials was added 0.05 mL of one of the glycoside substrate solutions in D6-DMSO, 0.5 mL of the appropriate deuterated buffer solution or 0.5 mL of water were indicated in the table below and the mixtures analysed by ^1H-NMR with 128 scans using a 400 MHz instrument to give an initial time reading.
The mixtures were then analysed in the same way after allowing to stand at room temperature for a further 22 h.
The mixtures were then incubated by shaking at 37° C. for a further 44 h and analysed in the same way.

[4] = Description: alcohol release from model compounds (III), (IV) and compound (V) in buffer, water and skin washings; conditions: for phenol release (in words): after 60 h
[5] = pH 5.7, presence and absence of skin washing

4-nitrophenol release (in words) [1]: releases virtually no 4-nitrophenol
Compound: O=[N+]([O-])c1ccc(O[C@@H]2O[C@H](CO)[C@@H](O)[C@H](O)[C@H]2O)cc1 [4-nitrophenyl-O-β-D-glucopyranoside, (2R,3S,4S,5R,6S)-2-(hydroxymethyl)-6-(4-nitrophenoxy)tetrahydro-2H-pyran-3,4,5-triol]
alcohol release (in words) ([2]; pH 7, presence and absence of skin washings): release some 4-nitrophenol visually at pH 7 and typically to a greater extent in the presence of skin washings, but to such a low extent that no change was observed by NMR

alcohol release (in words) [2, 5]: no reaction is observed
methanol release (in words) ([4]; 0.1M sodium phosphate buffer in D2O, pH 7.0, 37° C., after 36 h): slowly liberates methanol
Compound: CO[C@H]1O[C@H](CO)[C@@H](O)C(=O)[C@H]1O [methyl-O-α-D-3′-ketoglucopyranoside, (2R,3R,5S,6S)-3,5-dihydroxy-2-(hydroxymethyl)-6-methoxytetrahydro-4H-pyran-4-one]
stability / methanol release (in words) ([3]; 37° C., pH range tested and water): stable at pH 4.5 and 5.8, but very slowly generates methanol at pH 7.4
stability (in words) ([4]; deionised water, acidic pH): remained stable in deionised water and relatively stable at acidic pH
methanol release in the presence of skin washings (in words) ([4]; same temperature and pH (37° C., pH 7.0)): significantly more methanol than had been observed in buffer alone

Compound: CO[C@H]1O[C@H](CO)[C@@H](O)[C@H](O)[C@H]1O [methyl-O-α-D-glucopyranoside]
stability / methanol release (in words) [3]: remains stable over the pH range tested and in water
stability (in words) ([2]; all conditions tested (pH 5.7 and 7.0, with and without skin washing, 37° C.)): stable under all conditions tested

phenol release (in words) ([4]; buffer alone): a small quantity of conjugate remained
phenol release (in words) ([4]; in the presence of skin washing): complete release of phenol
Compound: O=C1[C@@H](O)[C@H](Oc2ccccc2)O[C@H](CO)[C@H]1O [phenyl-O-β-D-3′-ketoglucopyranoside, (2R,5S,6S)-3,5-dihydroxy-2-(hydroxymethyl)-6-phenoxytetrahydro-4H-pyran-4-one]
alcohol release (in words) [2, 5]: reacts slower than at pH 7 and to the same extent in the presence and absence of skin washing

stability (in words) ([2]; pH 5.7): stable under all conditions tested
Compound: OC[C@H]1O[C@@H](Oc2ccccc2)[C@H](O)[C@@H](O)[C@@H]1O [phenyl-O-β-D-glucopyranoside]
